In patent publication US9375000B2, “Pesticidal arylpyrrolidines” (Bayer Intellectual Property GmbH, priority 2011, dated 2016):

How the values were obtained:
Type in all cases: in vivo
[1] = tested on: Larvae of Spodoptera litura; experiment: Larvae of Spodoptera litura, method using artificial feeds; conditions: artificial feed, after 7 days
Protocol: (§1) Unless not mentioned otherwise, the test solutions were prepared as follows:
(§2) Solvent: 3 parts by weight Dimethylformamide
(§3) Emulsifier: 1 part by weight Polyoxyethylene alkyl phenyl ether
(§4) In order to make an appropriate formulation of an active compound, 1 part by weight of the active compound is mixed with the above mentioned amount of solvent and emulsifier and the mixture is diluted with water to a prescribed concentration. Ammonium salt or ammonium salt and penetration enhancer in a dosage of 1000 ppm are added to the desired concentration if necessary.
[A Method Using Artificial Feeds (Trade Name: Insecta LFM, Manufactured by Nosan Corporation)]
Powdery artificial feeds (2.3 g) were added to a plastic cup (diameter: 7.5 cm, height: 4 cm) to achieve a certain thickness. Water-diluted liquid (5 ml) of the active compound prepared above having predetermined concentration was evenly poured thereto and allowed to stand until the feeds were solidified. Five of the 3rd-instar larvae of Spodoptera litura were released in respective cups, and covered. The cups were put in a temperature controlled room at 25° C. and humidity of 50 to 60%, and the number of dead larvae after 7 days was determined to calculate the pesticidal ratio. 100% pesticidal ratio means death of all the larvae, while 0% pesticidal ratio means no dead larvae.

[2] = tested on: Two-Spotted Spider Mite (Tetranychus urticae); experiment: Two-spotted spider mite (Tetranychus urticae) spray test on kidney bean; conditions: after 7 days
Protocol: as §1, §2, §3, §4
50 to 100 adult mites of Tetranychus urticae were inoculated to leaves of kidney bean at two-leaf stage planted in a pot of 6 cm in diameter. After one day, test solution at the appropriate concentration was sprayed thereon in a sufficient amount using a spray gun. After the spraying, the plant pot was placed inside a greenhouse, and after 7 days, the acaricidal activity was calculated. An acaricidal activity of 100% means that all mites were killed, whereas an acaricidal activity of 0% means that no mite was killed.

[3] = tested on: Cucurbit Leaf Beetle (Aulacophora femoralis); experiment: Cucurbit leaf beetle (Aulacophora femoralis) cucumber leaf dip test; conditions: after 7 days
Protocol: as §1, §2, §3, §4
Leaves of cucumber were immersed in the test solution at the appropriate concentration, and the leaves were dried in air. The leaves were then put in a plastic cup containing sterilized black soil and five Aulacophora femoralis at second instar larvae were released in the cup. The cups were placed in a temperature-controlled chamber at 25° C. After 7 days, the number of dead larvae was counted, and thus the insecticidal activity was calculated. An insecticidal activity of 100% means that all larvae were killed, whereas an insecticidal activity of 0% means that no larva was killed.

[4] = active compound concentration 20 ppm
[5] = active compound concentration 4 ppm

Row | SMILES | insecticidal activity (pesticidal ratio) [1, 4] [%] | acaricidal activity [2, 4] [%] | insecticidal activity [3, 4] [%] | insecticidal activity (pesticidal ratio) [1, 5] [%] | acaricidal activity [2, 5] [%] | insecticidal activity [3, 5] [%] | pest or weed control at 20 ppm ([1]; Spodoptera litura, 168 h, active compound concentration 20 ppm, read-out: insecticidal activity (pesticidal ratio)) [%] | pest or weed control at 20 ppm ([2]; Tetranychus urticae, 168 h, active compound concentration 20 ppm, read-out: acaricidal activity) [%] | pest or weed control at 20 ppm ([3]; Aulacophora, foliar, 168 h, active compound concentration 20 ppm, read-out: insecticidal activity) [%]
1 | CS(=O)(=O)CC(=O)NCc1ccc(N2CCC(c3cc(Cl)c(Cl)c(Cl)c3)(C(F)(F)F)C2O)nc1C(F)(F)F (stereo not shown) [A3-22] | 100 | 100 | 100 |  |  |  |  |  | 
2 | O=C(NCc1cnc(N2CCC(c3cc(C(F)(F)F)cc(C(F)(F)F)c3)(C(F)(F)F)C2O)nc1C(F)(F)F)C1CC1 (stereo not shown) [A4-27] | 100 | 100 | 100 |  |  |  |  |  | 
3 | O=C(NCc1ccc(N2CCC(c3cc(Cl)cc(C(F)(F)F)c3)(C(F)(F)F)C2O)nc1C(F)(F)F)C1CC1 (mixture of isomers) [A3-269] | 100 | 100 | 100 |  |  |  |  |  | 
4 | Cc1cc(N2CCC(c3cc(C(F)(F)F)cc(C(F)(F)F)c3)(C(F)(F)F)C2O)ccc1CNC(=O)C1CC1 (mixture of isomers) [A1-187] | 100 | 100 | 100 |  |  |  |  |  | 
5 | CCC(=O)NCc1ccc(N2CCC(c3cc(Cl)c(Cl)c(Cl)c3)(C(F)(F)F)C2O)cc1C(F)(F)F (stereo not shown) [A1-46] | 100 | 100 | 100 |  |  |  |  |  | 
6 | O=C(NCc1ccc(N2CCC(c3cc(Cl)cc(Cl)c3)(C(F)(F)F)C2O)cc1Cl)C1CC1 (stereo not shown) [A1-5] | 100 | 100 | 100 |  |  |  |  |  | 
7 | O=C(CC(F)(F)F)NCc1ccc(N2CCC(c3cc(Cl)cc(Cl)c3)(C(F)(F)F)C2O)cc1C(F)(F)F (stereo not shown) [A1-40] | 100 | 100 | 100 |  |  |  |  |  | 
8 | N#CCC(=O)NCc1ccc(N2CCC(c3cc(C(F)(F)F)cc(C(F)(F)F)c3)(C(F)(F)F)C2O)cc1C(F)(F)F (stereo not shown) [A1-528] |  |  |  | 100 | 98 | 100 |  |  | 
9 | CCC(=O)NCc1ccc(N2CCC(c3cc(C(F)(F)F)cc(C(F)(F)F)c3)(C(F)(F)F)C2O)nc1C(F)(F)F (stereo not shown) [A3-24] | 100 | 100 | 100 |  |  |  |  |  | 
10 | O=C(NCc1ccc(N2CCC(c3cc(Cl)c(Cl)c(Cl)c3)(C(F)(F)F)C2O)cc1F)C1CC1 (mixture of isomers) [A1-154] | 100 | 100 | 100 |  |  |  |  |  | 
11 | C[S+]([O-])CC(=O)NCc1cnc(N2CCC(c3cc(Cl)c(Cl)c(Cl)c3)(C(F)(F)F)C2O)nc1C(F)(F)F (stereo not shown) [A4-21] | 100 | 100 | 100 |  |  |  |  |  | 
12 | O=C(NCc1ccc(N2CCC(c3cc(C(F)(F)F)cc(C(F)(F)F)c3)(C(F)(F)F)C2O)cc1F)C1CC1 (mixture of isomers) [A1-209] | 100 | 100 | 100 |  |  |  |  |  | 
13 | O=C(NCc1ccc(N2CCC(c3cc(Cl)c(F)c(Cl)c3F)(C(F)(F)F)C2O)nc1Br)C1CC1 (stereo not shown) [A3-326] |  | 100 |  | 100 |  | 100 |  |  | 
14 | CSCC(=O)NCc1ccc(N2CCC(c3cc(C(F)(F)F)cc(C(F)(F)F)c3)(C(F)(F)F)C2O)nc1Br (mixture of isomers) [A3-163] | 100 | 100 | 100 | 100 |  | 100 |  |  | 
15 | CSCC(=O)NCc1cnc(N2CCC(c3cc(Cl)c(Cl)c(Cl)c3)(C(F)(F)F)C2O)nc1C(F)(F)F (stereo not shown) [A4-20] | 100 | 100 | 100 |  |  |  |  |  | 
16 | CCC(=O)NCc1ccc(N2CCC(c3cccc(C(F)(F)F)c3)(C(F)(F)F)C2O)cc1C(F)(F)F (racemic) [A1-294] | 100 | 100 | 100 |  |  |  |  |  | 
17 | CC(=O)NCc1ccc(N2CCC(c3cc(Cl)c(Cl)c(Cl)c3)(C(F)(F)F)C2O)nc1C(F)(F)F (stereo not shown) [A3-12] | 100 | 100 | 100 |  |  |  |  |  | 

Row | SMILES | insecticidal activity (pesticidal ratio) [1, 4] [%] | acaricidal activity [2, 4] [%] | insecticidal activity [3, 4] [%] | insecticidal activity (pesticidal ratio) [1, 5] [%] | acaricidal activity [2, 5] [%] | insecticidal activity [3, 5] [%] | pest or weed control at 20 ppm ([1]; Spodoptera litura, 168 h, active compound concentration 20 ppm, read-out: insecticidal activity (pesticidal ratio)) [%] | pest or weed control at 20 ppm ([2]; Tetranychus urticae, 168 h, active compound concentration 20 ppm, read-out: acaricidal activity) [%] | pest or weed control at 20 ppm ([3]; Aulacophora, foliar, 168 h, active compound concentration 20 ppm, read-out: insecticidal activity) [%]
18 | Cc1nc(N2CCC(c3cc(C(F)(F)F)cc(C(F)(F)F)c3)(C(F)(F)F)C2O)ccc1CNC(=O)CC1CC1 (stereo not shown) [A3-127] |  | 100 | 100 | 80 | 100 | 100 |  |  | 
19 | O=C(CC(F)(F)F)NCc1ccc(N2CCC(c3cc(C(F)(F)F)cc(C(F)(F)F)c3)(C(F)(F)F)C2O)nc1Br (stereo not shown) [A3-161, N-[(6-{3-[3,5-bis(trifluoromethyl)phenyl]-2-hydroxy-3-(trifluoromethyl)pyrrolidin-1-yl}-2-bromopyridin-3-yl)methyl]-3,3,3-trifluoropropanamide] |  |  |  |  |  |  | 100 | 100 | 100
20 | CCC(=O)NCc1ccc(N2CCC(c3cc(Cl)c(Cl)c(Cl)c3)(C(F)(F)F)C2O)cc1Cl (stereo not shown) [A1-13] | 100 | 100 | 100 |  |  |  |  |  | 
21 | O=C(NCc1ccc(N2CCC(c3cc(Cl)cc(C(F)(F)F)c3)(C(F)(F)F)C2O)cc1C(F)(F)F)C1CC1 (stereo not shown) [A1-341] | 100 | 100 | 100 |  |  |  |  |  | 
22 | COCCC(=O)NCc1cnc(N2CCC(c3cc(C(F)(F)F)cc(C(F)(F)F)c3)(C(F)(F)F)C2O)nc1C(F)(F)F (stereo not shown) [A4-30] | 100 | 100 | 100 |  |  |  |  |  | 
23 | CCC(=O)NCc1ccc(N2CCC(c3cc(Cl)cc(Cl)c3F)(C(F)(F)F)C2O)cc1C(F)(F)F (stereo not shown) [A1-406] |  |  |  | 100 | 100 | 100 |  |  | 
24 | CCC(=O)NCc1ccc(N2CCC(c3cc(Cl)c(F)c(Cl)c3F)(C(F)(F)F)C2O)nc1C(F)(F)F (mixture of isomers) [A3-211] | 100 | 100 | 100 | 100 | 100 | 100 |  |  | 
25 | O=C(NCc1ccc(N2CCC(c3cc(Cl)c(F)c(Cl)c3F)(C(F)(F)F)C2O)cc1C(F)(F)F)C1CC1 (stereo not shown) [A1-286] | 100 | 100 | 100 |  |  |  |  |  | 
26 | O=C(NCc1ccc(N2CCC(c3cc(Cl)cc(Cl)c3)(C(F)(F)F)C2O)cc1C(F)(F)F)C1CC1 (stereo not shown) [A1-38] | 100 | 100 | 100 |  |  |  |  |  | 
27 | CCC(=O)NCc1ccc(N2CCC(c3cc(C(F)(F)F)cc(C(F)(F)F)c3)(C(F)(F)F)C2O)cc1F (mixture of isomers) [A1-206] | 100 | 100 | 100 |  |  |  |  |  | 
28 | CCC(=O)NCc1ccc(N2CCC(c3cc(Cl)cc(C(F)(F)F)c3)(C(F)(F)F)C2O)nc1C(F)(F)F (mixture of isomers) [A3-266] | 100 | 100 | 100 |  |  |  |  |  | 
29 | CC(=O)NCc1ccc(N2CCC(c3cc(Cl)cc(Cl)c3)(C(F)(F)F)C2O)nc1C(F)(F)F (stereo not shown) [A3-1] | 100 | 100 | 100 |  |  |  |  |  | 
30 | CC(NC(=O)C1CC1)c1ccc(N2CCC(c3cc(Cl)c(Cl)c(Cl)c3)(C(F)(F)F)C2O)cc1 (mixture of isomers) [A2-16] | 100 | 100 | 100 |  |  |  |  |  | 
31 | CCC(=O)NCc1ccc(N2CCC(c3cc(Cl)cc(Cl)c3F)(C(F)(F)F)C2O)nc1C(F)(F)F (stereo not shown) [A3-345] |  | 100 |  | 100 |  | 100 |  |  | 
32 | CS(=O)(=O)CC(=O)NCc1ccc(N2CCC(c3cc(C(F)(F)F)cc(C(F)(F)F)c3)(C(F)(F)F)C2O)cc1Cl (stereo not shown) [A1-33] | 100 | 100 | 100 |  |  |  |  |  | 
33 | CCC(=O)NCc1ccc(N2CCC(c3cc(C(F)(F)F)cc(C(F)(F)F)c3)(C(F)(F)F)C2O)cc1C (mixture of isomers) [A1-184] | 100 | 100 | 100 |  |  |  |  |  | 
